Assay results as given in US20020132801A1, “Drospirenone for hormone replacement therapy” (Schering Aktiengesellschaft, priority 2001, published 2002).

Legend:
Format in all cases: physicochemical
[1] = Solubility in water and aqueous buffers; settings: water and aqueous buffers at various pH values
[2] = Chemical stability under acid and alkaline conditions
[3] = In vitro dissolution from tablet, USP XXIII Paddle Method; settings: drospirenone in micronized form in a pharmaceutical composition; rapid dissolution defined as at least 70% over about 30 minutes from 3 mg tablet in 900 ml water at 37° C., 50 rpm
Description: A micronized substance is such that a test batch (ca. 200 mg) of the particles, herein drospirenone particles, has a surface area of more than 10,000 cm^2/g, and has the following particle size distribution for drospirenone as determined under the microscope: not more than 2 particles in a given batch (ca. 200 mg) with a diameter of more than 30 μm, and preferably ≦20 particles with a diameter of ≧10 μm and ≦30 μm.

- solubility [1]: sparingly soluble
- stability under acid conditions ([2]; acid conditions): rearranged to an inactive isomer
- stability under alkaline conditions ([2]; alkaline conditions): hydrolysed
- in vitro dissolution of active compound from composition [3]: rapid dissolution
SMILES: C[C@]12CCC(=O)C=C1[C@@H]1C[C@@H]1[C@H]1[C@@H]3[C@@H]4C[C@@H]4[C@@]4(CCC(=O)O4)[C@@]3(C)CC[C@@H]12 [drospirenone, 6β,7β;15β;16β-dimethylene-3-oxo-17α-preg-4-ene-21,17-carbolactone]
